Measurements taken from ChEMBL document CHEMBL1129347, “Topographical amino acid substitution in position 10 of glucagon leads to antagonists/partial agonists with greater binding differences” (J Med Chem, 1996).

biological target: Glucagon receptor (Rattus norvegicus, UniProt P30082); assay: Inhibition of [125I]glucagon binding towards Glucagon receptor
Sequence (P30082 whole entry): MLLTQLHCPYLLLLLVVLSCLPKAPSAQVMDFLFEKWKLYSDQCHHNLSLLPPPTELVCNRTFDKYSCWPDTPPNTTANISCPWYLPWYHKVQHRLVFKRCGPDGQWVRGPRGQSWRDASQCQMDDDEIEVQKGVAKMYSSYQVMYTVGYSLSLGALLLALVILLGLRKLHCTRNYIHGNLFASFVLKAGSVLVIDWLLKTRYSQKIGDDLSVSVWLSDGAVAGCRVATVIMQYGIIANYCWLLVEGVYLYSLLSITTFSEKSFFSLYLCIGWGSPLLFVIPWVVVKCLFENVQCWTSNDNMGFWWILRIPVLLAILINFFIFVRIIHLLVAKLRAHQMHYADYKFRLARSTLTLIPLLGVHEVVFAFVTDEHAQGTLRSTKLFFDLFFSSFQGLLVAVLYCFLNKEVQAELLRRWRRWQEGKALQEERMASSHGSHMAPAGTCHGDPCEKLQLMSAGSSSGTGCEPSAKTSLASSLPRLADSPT

Compound	IC50
CSCC[C@H](NC(=O)[C@H](CC(C)C)NC(=O)[C@H](Cc1c[nH]c2ccccc12)NC(=O)[C@H](CCC(N)=O)NC(=O)[C@@H](NC(=O)[C@H](Cc1ccccc1)NC(=O)[C@H](CC(=O)O)NC(=O)[C@H](CCC(N)=O)NC(=O)[C@H](C)NC(=O)[C@H](CCCNC(=N)N)NC(=O)[C@H](CCCNC(=N)N)NC(=O)[C@H](CO)NC(=O)[C@H](CC(=O)O)NC(=O)[C@H](CC(C)C)NC(=O)[C@H](Cc1ccc(O)cc1)NC(=O)[C@H](CCCCN)NC(=O)[C@H](CO)NC(=O)[C@H](C)NC(=O)[C@H](CCC(=O)O)NC(=O)[C@H](CO)NC(=O)[C@@H](NC(=O)[C@H](Cc1ccccc1)NC(=O)[C@H](Cc1ccc(O)cc1)NC(=O)CNC(=O)[C@H](CCC(N)=O)NC(=O)[C@@H](N)CO)[C@@H](C)O)C(C)C)C(=O)N[C@@H](CC(N)=O)C(=O)N[C@H](C(N)=O)[C@@H](C)O	395 nM
CSCC[C@H](NC(=O)[C@H](CC(C)C)NC(=O)[C@H](Cc1c[nH]c2ccccc12)NC(=O)[C@H](CCC(N)=O)NC(=O)[C@@H](NC(=O)[C@H](Cc1ccccc1)NC(=O)[C@H](CC(=O)O)NC(=O)[C@H](CCC(N)=O)NC(=O)[C@H](C)NC(=O)[C@H](CCCN=C(N)N)NC(=O)[C@H](CCCN=C(N)N)NC(=O)[C@H](CO)NC(=O)[C@H](CC(=O)O)NC(=O)[C@H](CC(C)C)NC(=O)[C@H](Cc1ccc(O)cc1)NC(=O)[C@H](CCCCN)NC(=O)[C@H](CO)NC(=O)[C@@H](NC(=O)[C@H](CCC(=O)O)NC(=O)[C@H](CO)NC(=O)[C@@H](NC(=O)[C@H](Cc1ccccc1)NC(=O)[C@H](Cc1ccc(O)cc1)NC(=O)CNC(=O)[C@H](CCC(N)=O)NC(=O)[C@@H](N)CO)[C@@H](C)O)[C@H](C)c1ccccc1)C(C)C)C(=O)N[C@@H](CC(N)=O)C(=O)N[C@H](C(N)=O)[C@@H](C)O	10 nM
CSCC[C@H](NC(=O)[C@H](CC(C)C)NC(=O)[C@H](Cc1c[nH]c2ccccc12)NC(=O)[C@H](CCC(N)=O)NC(=O)[C@@H](NC(=O)[C@H](Cc1ccccc1)NC(=O)[C@H](CC(=O)O)NC(=O)[C@H](CCC(N)=O)NC(=O)[C@H](C)NC(=O)[C@H](CCCNC(=N)N)NC(=O)[C@H](CCCNC(=N)N)NC(=O)[C@H](CO)NC(=O)[C@H](CC(=O)O)NC(=O)[C@H](CC(C)C)NC(=O)[C@H](Cc1ccc(O)cc1)NC(=O)[C@H](CCCCN)NC(=O)[C@H](CO)NC(=O)[C@H](Cc1ccccc1)NC(=O)[C@H](CCC(=O)O)NC(=O)[C@H](CO)NC(=O)[C@@H](NC(=O)[C@H](Cc1ccccc1)NC(=O)[C@H](Cc1ccc(O)cc1)NC(=O)CNC(=O)[C@H](CCC(N)=O)NC(=O)[C@@H](N)CO)[C@@H](C)O)C(C)C)C(=O)N[C@@H](CC(N)=O)C(=O)N[C@H](C(N)=O)[C@@H](C)O	4.1 nM
CSCC[C@H](NC(=O)[C@H](CC(C)C)NC(=O)[C@H](Cc1c[nH]c2ccccc12)NC(=O)[C@H](CCC(N)=O)NC(=O)[C@@H](NC(=O)[C@H](Cc1ccccc1)NC(=O)[C@H](CC(=O)O)NC(=O)[C@H](CCC(N)=O)NC(=O)[C@H](C)NC(=O)[C@H](CCCNC(=N)N)NC(=O)[C@H](CCCNC(=N)N)NC(=O)[C@H](CO)NC(=O)[C@H](CC(=O)O)NC(=O)[C@H](CC(C)C)NC(=O)[C@H](Cc1ccc(O)cc1)NC(=O)[C@H](CCCCN)NC(=O)[C@H](CO)NC(=O)[C@@H](Cc1ccccc1)NC(=O)[C@H](CCC(=O)O)NC(=O)[C@H](CO)NC(=O)[C@@H](NC(=O)[C@H](Cc1ccccc1)NC(=O)[C@H](Cc1ccc(O)cc1)NC(=O)CNC(=O)[C@H](CCC(N)=O)NC(=O)[C@@H](N)CO)[C@@H](C)O)C(C)C)C(=O)N[C@@H](CC(N)=O)C(=O)N[C@H](C(N)=O)[C@@H](C)O	34.5 nM

More lines, now with the values ahead:

IC50	Compound
510 nM	CSCC[C@H](NC(=O)[C@H](CC(C)C)NC(=O)[C@H](Cc1c[nH]c2ccccc12)NC(=O)[C@H](CCC(N)=O)NC(=O)[C@@H](NC(=O)[C@H](Cc1ccccc1)NC(=O)[C@H](CC(=O)O)NC(=O)[C@H](CCC(N)=O)NC(=O)C(C)NC(=O)[C@H](CCCN=C(N)N)NC(=O)[C@H](CCCN=C(N)N)NC(=O)[C@H](CO)NC(=O)[C@H](CC(=O)O)NC(=O)[C@H](CC(C)C)NC(=O)[C@H](Cc1ccc(O)cc1)NC(=O)[C@H](CCCCN)NC(=O)[C@H](CO)NC(=O)C(C)NC(=O)[C@H](CCC(=O)O)NC(=O)[C@H](CO)NC(=O)[C@@H](NC(=O)[C@H](Cc1ccccc1)NC(=O)[C@H](Cc1ccc(O)cc1)NC(=O)CNC(=O)[C@H](CCC(N)=O)NC(=O)[C@@H](N)CO)[C@@H](C)O)C(C)C)C(=O)N[C@@H](CC(N)=O)C(=O)N[C@H](C(N)=O)[C@@H](C)O (stereo in doubt)
2.3 nM	CSCC[C@H](NC(=O)[C@H](CC(C)C)NC(=O)[C@H](Cc1c[nH]c2ccccc12)NC(=O)[C@H](CCC(N)=O)NC(=O)[C@@H](NC(=O)[C@H](Cc1ccccc1)NC(=O)[C@H](CC(=O)O)NC(=O)[C@H](CCC(N)=O)NC(=O)[C@H](C)NC(=O)[C@H](CCCN=C(N)N)NC(=O)[C@H](CCCN=C(N)N)NC(=O)[C@H](CO)NC(=O)[C@H](CC(=O)O)NC(=O)[C@H](CC(C)C)NC(=O)[C@H](Cc1ccc(O)cc1)NC(=O)[C@H](CCCCN)NC(=O)[C@H](CO)NC(=O)[C@H](Cc1ccc(O)cc1)NC(=O)[C@H](CCC(=O)O)NC(=O)[C@H](CO)NC(=O)[C@@H](NC(=O)[C@H](Cc1ccccc1)NC(=O)[C@H](Cc1ccc(O)cc1)NC(=O)CNC(=O)[C@H](CCC(N)=O)NC(=O)[C@@H](N)CO)[C@@H](C)O)C(C)C)C(=O)N[C@@H](CC(N)=O)C(=O)N[C@H](C(N)=O)[C@@H](C)O
74 nM	CSCC[C@H](NC(=O)[C@H](CC(C)C)NC(=O)[C@H](Cc1c[nH]c2ccccc12)NC(=O)[C@H](CCC(N)=O)NC(=O)[C@@H](NC(=O)[C@H](Cc1ccccc1)NC(=O)[C@H](CC(=O)O)NC(=O)[C@H](CCC(N)=O)NC(=O)[C@H](C)NC(=O)[C@H](CCCN=C(N)N)NC(=O)[C@H](CCCN=C(N)N)NC(=O)[C@H](CO)NC(=O)[C@H](CC(=O)O)NC(=O)[C@H](CC(C)C)NC(=O)[C@H](Cc1ccc(O)cc1)NC(=O)[C@H](CCCCN)NC(=O)[C@H](CO)NC(=O)[C@@H](Cc1ccc(O)cc1)NC(=O)[C@H](CCC(=O)O)NC(=O)[C@H](CO)NC(=O)[C@@H](NC(=O)[C@H](Cc1ccccc1)NC(=O)[C@H](Cc1ccc(O)cc1)NC(=O)CNC(=O)[C@H](CCC(N)=O)NC(=O)[C@@H](N)CO)[C@@H](C)O)C(C)C)C(=O)N[C@@H](CC(N)=O)C(=O)N[C@H](C(N)=O)[C@@H](C)O
